# Experimental data as given in patent publication US20100168125A1, “INDOLIZINES AND AZA-ANALOG DERIVATIVES THEREOF AS CNS ACTIVE COMPOUNDS” (priority 2007, published 2010).
# Where two headings read alike, the source gives them in different places.
# Experiments:
# [1] = molecular target: T1, human D2long receptor (Homo sapiens, UniProt P14416); test: radioligand binding with [^3H]spiperone, D2long; conditions: [^3H]spiperone, CHO membranes, mean of 2 to 4 experiments; read-out: Ki D2lo
# T1 construct: expressed in transfected cells; host or cells: Chinese hamster ovary (CHO) cells, membranes
# T1 sequence (P14416 whole entry): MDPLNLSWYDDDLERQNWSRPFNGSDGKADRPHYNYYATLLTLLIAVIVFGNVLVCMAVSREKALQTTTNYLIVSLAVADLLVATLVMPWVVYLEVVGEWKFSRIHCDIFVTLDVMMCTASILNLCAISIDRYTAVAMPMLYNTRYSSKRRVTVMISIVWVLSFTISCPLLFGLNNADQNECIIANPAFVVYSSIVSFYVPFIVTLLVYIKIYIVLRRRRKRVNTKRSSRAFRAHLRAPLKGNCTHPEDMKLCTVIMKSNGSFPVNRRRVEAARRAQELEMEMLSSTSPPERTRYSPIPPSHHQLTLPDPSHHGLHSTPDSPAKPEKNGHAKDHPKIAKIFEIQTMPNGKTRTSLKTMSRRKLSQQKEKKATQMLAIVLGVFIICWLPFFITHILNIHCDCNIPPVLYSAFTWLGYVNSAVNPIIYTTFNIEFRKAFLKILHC
# Protocol: (§1) For the determination of binding affinity to the receptors of the dopamine D2 family membranes were established carrying the human D2long, D2short, D3 or D4.4 receptor subtype expressed in Chinese hamster ovary cell lines. In principle, the binding experiments started when incubating an appropriate amount of membrane with the radioligand [^3H]spiperone and the particular test compounds diluted in a wide range of different concentrations from subnanomolar up to micromolar.
# [2] = molecular target: T2, human D2short receptor (Homo sapiens, UniProt P14416); test: radioligand binding with [^3H]spiperone, D2short; conditions: [^3H]spiperone, CHO membranes, mean of 2 to 4 experiments; read-out: Ki D2sh
# T2 construct: expressed in transfected cells; host or cells: Chinese hamster ovary (CHO) cells, membranes
# T2 sequence (P14416 1-414 isoform P14416-2): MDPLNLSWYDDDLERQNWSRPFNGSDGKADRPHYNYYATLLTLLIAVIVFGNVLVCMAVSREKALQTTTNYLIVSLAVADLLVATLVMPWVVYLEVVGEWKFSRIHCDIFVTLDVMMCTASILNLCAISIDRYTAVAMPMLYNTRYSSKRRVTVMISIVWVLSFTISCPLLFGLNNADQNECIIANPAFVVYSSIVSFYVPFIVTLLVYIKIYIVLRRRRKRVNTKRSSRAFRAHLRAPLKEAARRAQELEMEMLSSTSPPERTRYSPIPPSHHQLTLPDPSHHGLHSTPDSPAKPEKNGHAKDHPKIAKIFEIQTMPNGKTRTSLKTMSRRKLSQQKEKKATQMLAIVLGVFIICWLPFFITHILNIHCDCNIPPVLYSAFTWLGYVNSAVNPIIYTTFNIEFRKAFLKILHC
# Protocol: as §1
# [3] = molecular target: T3, human D3 receptor (Homo sapiens, UniProt P35462); test: radioligand binding with [^3H]spiperone, D3; conditions: [^3H]spiperone, CHO membranes, mean of 2 to 4 experiments
# T3 construct: expressed in transfected cells; host or cells: Chinese hamster ovary (CHO) cells, membranes
# T3 sequence (P35462 whole entry): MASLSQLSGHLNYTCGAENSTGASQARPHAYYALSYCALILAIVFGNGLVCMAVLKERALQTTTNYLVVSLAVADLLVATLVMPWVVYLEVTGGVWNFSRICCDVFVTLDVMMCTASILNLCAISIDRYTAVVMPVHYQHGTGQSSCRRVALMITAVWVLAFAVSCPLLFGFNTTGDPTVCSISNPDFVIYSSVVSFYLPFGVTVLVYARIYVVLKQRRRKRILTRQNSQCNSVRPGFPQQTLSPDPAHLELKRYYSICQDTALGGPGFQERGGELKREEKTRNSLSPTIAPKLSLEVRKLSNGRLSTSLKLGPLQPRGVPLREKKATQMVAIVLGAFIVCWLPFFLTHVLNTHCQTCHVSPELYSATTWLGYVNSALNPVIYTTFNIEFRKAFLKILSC
# Protocol: as §1
# [4] = molecular target: T4, human D4.4 receptor (Homo sapiens, UniProt P21917); test: radioligand binding with [^3H]spiperone, D4.4; conditions: [^3H]spiperone, CHO membranes, mean of 2 to 4 experiments
# T4 construct: expressed in transfected cells; host or cells: Chinese hamster ovary (CHO) cells, membranes
# T4 sequence (P21917 1-419): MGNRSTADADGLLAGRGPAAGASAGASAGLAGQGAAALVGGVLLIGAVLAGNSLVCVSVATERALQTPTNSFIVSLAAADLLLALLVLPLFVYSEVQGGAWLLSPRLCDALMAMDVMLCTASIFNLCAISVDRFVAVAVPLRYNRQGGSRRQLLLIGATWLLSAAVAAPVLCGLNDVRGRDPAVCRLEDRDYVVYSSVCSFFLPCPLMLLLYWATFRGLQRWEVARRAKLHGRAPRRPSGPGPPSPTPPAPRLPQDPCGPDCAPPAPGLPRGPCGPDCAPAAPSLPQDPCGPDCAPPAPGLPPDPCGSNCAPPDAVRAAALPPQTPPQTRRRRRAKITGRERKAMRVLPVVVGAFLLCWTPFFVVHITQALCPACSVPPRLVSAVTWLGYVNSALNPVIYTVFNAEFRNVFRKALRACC
# Protocol: as §1
# [5] = molecular target: T5, 5-HT1A receptor (Sus scrofa, UniProt A0A4X1UTF5); test: radioligand binding, porcine cortical membranes, [^3H]8-OH-DPAT and [^3H]WAY 100635; conditions: porcine cortical membranes
# T5 construct: membrane preparations from porcine cortical material; from tissue; host or cells: porcine cerebral cortex membranes
# T5 sequence (A0A4X1UTF5 1-422): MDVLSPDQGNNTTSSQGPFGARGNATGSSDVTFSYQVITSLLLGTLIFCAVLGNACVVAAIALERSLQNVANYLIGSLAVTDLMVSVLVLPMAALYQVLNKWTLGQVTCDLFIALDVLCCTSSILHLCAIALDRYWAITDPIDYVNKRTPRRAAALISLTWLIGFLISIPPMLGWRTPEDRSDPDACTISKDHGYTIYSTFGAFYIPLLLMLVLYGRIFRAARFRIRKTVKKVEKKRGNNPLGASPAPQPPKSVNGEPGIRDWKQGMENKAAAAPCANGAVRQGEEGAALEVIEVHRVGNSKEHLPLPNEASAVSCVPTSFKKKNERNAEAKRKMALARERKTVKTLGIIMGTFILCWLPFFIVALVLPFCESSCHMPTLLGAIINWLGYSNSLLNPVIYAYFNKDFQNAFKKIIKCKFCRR
# [6] = molecular target: T6, 5-HT2 receptor (Sus scrofa, UniProt P50129); test: radioligand binding, porcine cortical membranes, [^3H]ketanserin; conditions: porcine cortical membranes, [^3H]ketanserin
# T6 construct: membrane preparations from porcine cortical material; from tissue; host or cells: porcine cerebral cortex membranes
# T6 sequence (P50129 whole entry): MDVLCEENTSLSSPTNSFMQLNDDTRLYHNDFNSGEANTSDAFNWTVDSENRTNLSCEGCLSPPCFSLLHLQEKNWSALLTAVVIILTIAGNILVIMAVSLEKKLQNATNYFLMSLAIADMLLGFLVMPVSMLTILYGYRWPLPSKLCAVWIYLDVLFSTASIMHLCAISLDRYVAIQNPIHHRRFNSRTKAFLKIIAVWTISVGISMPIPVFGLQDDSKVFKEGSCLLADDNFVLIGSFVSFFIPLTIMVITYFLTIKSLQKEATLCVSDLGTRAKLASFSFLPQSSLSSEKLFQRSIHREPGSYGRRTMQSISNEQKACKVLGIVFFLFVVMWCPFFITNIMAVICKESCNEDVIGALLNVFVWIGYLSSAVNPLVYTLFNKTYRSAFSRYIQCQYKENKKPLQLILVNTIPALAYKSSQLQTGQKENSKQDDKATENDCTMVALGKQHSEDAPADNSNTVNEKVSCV
# [7] = molecular target: dopamine D2short receptor (Homo sapiens, UniProt P14416); test: [^35S]GTPγS-incorporation assay, intrinsic activity
# Chain of dopamine D2short receptor (P14416 1-414 isoform P14416-2): as the sequence (P14416 1-414 isoform P14416-2) above
# [8] = read-out: D2short: [^35S]GTPγS intrinsic activity
# [9] = read-out: D2short: [^35S]GTPγS intrinsic activity, % activity of quinpirol
Structure (SMILES),Ki [1],Ki [2],Ki [3],Ki [4],Ki [5],Ki [6],melting point,"Emax [7, 8]","Emax [7, 9]",D2short: [^35S]GTPγS intrinsic activity ([7]; % activity of quinpirol)
"O=Cc1cnn2cccc(OCCCCN3CCN(c4ccccc4Cl)CC3)c12 [Example E12, 4-[4-[4-(2-Chlorophenyl)piperazin-1-yl]butoxy]pyrazolo[1,5-a]pyridine-3-carbaldehyde]",< 30 nM,< 30 nM,30 to 300 nM,< 30 nM,< 30 nM,301 to 3000 nM,125 °C,15 to 40%,–,–
"Clc1cccc(N2CCN(CCCOCc3ccn4nccc4c3)CC2)c1Cl [Example E13, 5-[3-[4-(2,3-Dichlorophenyl)piperazin-1-yl]propoxymethyl]pyrazolo[1,5-a]pyridine]",< 30 nM,< 30 nM,< 30 nM,30 to 300 nM,30 to 300 nM,30 to 300 nM,69 °C,< 15%,–,–
"O=Cc1cnn2ccc(COCCCN3CCN(c4cccc(Cl)c4Cl)CC3)cc12 [Example E14, 5-[3-[4-(2,3-Dichlorophenyl)piperazin-1-yl]propoxymethyl]pyrazolo[1,5-a]pyridine-3-carbaldehyde]",< 30 nM,< 30 nM,< 30 nM,30 to 300 nM,< 30 nM,30 to 300 nM,90 °C,–,15 to 40%,–
"Clc1cccc(N2CCN(CCCCOc3ccn4nccc4c3)CC2)c1Cl [Example E15, 5-[4-[4-(2,3-Dichlorophenyl)piperazin-1-yl]butoxy]pyrazolo[1,5-a]pyridine]",30 to 300 nM,30 to 300 nM,< 30 nM,30 to 300 nM,30 to 300 nM,301 to 3000 nM,105 °C,–,15 to 40%,–
"Clc1ccccc1N1CCN(CCCCOc2ccn3nccc3c2)CC1 [Example E17, 5-[4-[4-(2-Chlorophenyl)piperazin-1-yl]butoxy]pyrazolo[1,5-a]pyridine]",< 30 nM,< 30 nM,< 30 nM,30 to 300 nM,30 to 300 nM,301 to 3000 nM,163 °C,–,15 to 40%,–
COc1ccc(N2CCN(CCCCOc3ccn4nccc4c3)CC2)cc1 [Example E18],> 3000 nM,301 to 3000 nM,30 to 300 nM,301 to 3000 nM,30 to 300 nM,301 to 3000 nM,111 °C,–,< 15%,–
"Clc1ccc(N2CCN(CCCCOc3ccn4nccc4c3)CC2)cc1 [Example E19, 5-[4-[4-(4-Chlorophenyl)piperazin-1-yl]butoxy]pyrazolo[1,5-a]pyridine]",30 to 300 nM,30 to 300 nM,30 to 300 nM,30 to 300 nM,30 to 300 nM,301 to 3000 nM,125 °C,–,15 to 40%,–
"Oc1ccc(N2CCN(CCCCOc3ccn4nccc4c3)CC2)cc1 [Example E20, 5-[4-[4-(4-Hydroxyphenyl)piperazin-1-yl]butoxy]pyrazolo[1,5-a]pyridine]",30 to 300 nM,30 to 300 nM,30 to 300 nM,301 to 3000 nM,> 3000 nM,301 to 3000 nM,124 °C,–,15 to 40%,–
"O=Cc1cnn2ccc(OCCCCN3CCN(c4ccccc4Cl)CC3)cc12 [Example E23, 5-[4-[4-(2-Chlorophenyl)piperazin-1-yl]butoxy]pyrazolo[1,5-a]pyridine-3-carbaldehyde]",< 30 nM,< 30 nM,< 30 nM,< 30 nM,< 30 nM,301 to 3000 nM,116 °C,–,15 to 40%,–
"COc1ccc(N2CCN(CCCCOc3ccn4ncc(C=O)c4c3)CC2)cc1 [Example E24, 5-[4-[4-(4-Methoxyphenyl)piperazin-1-yl]butoxy]pyrazolo[1,5-a]pyridine-3-carbaldehyde]",30 to 300 nM,30 to 300 nM,301 to 3000 nM,301 to 3000 nM,30 to 300 nM,> 3000 nM,114 °C,–,< 15%,–
O=Cc1cnn2ccc(OCCCCN3CCN(c4ccc(Cl)cc4)CC3)cc12 [Example E25],< 30 nM,< 30 nM,30 to 300 nM,30 to 300 nM,30 to 300 nM,301 to 3000 nM,113 °C,–,15 to 40%,–
"O=Cc1cnn2ccc(OCCCCN3CCN(c4ccc(O)cc4)CC3)cc12 [Example E26, 5-[4-[4-(4-Hydroxyphenyl)piperazin-1-yl]butoxy]pyrazolo[1,5-a]pyridine-3-carbaldehyde]",30 to 300 nM,< 30 nM,30 to 300 nM,30 to 300 nM,30 to 300 nM,301 to 3000 nM,164 °C,–,40 to 75%,–
"ON=Cc1cnn2ccc(OCCCCN3CCN(c4ccccc4Cl)CC3)cc12 [Example E32, (s-trans) 5-[4-[4-(2-Chlorophenyl)piperazin-1-yl]butoxy[pyrazolo[1,5-a]pyridine-3-carbaldehyde oxime]",< 30 nM,< 30 nM,< 30 nM,< 30 nM,< 30 nM,30 to 300 nM,174 °C,–,15 to 40%,–
"ON=Cc1cnn2ccc(OCCCCN3CCN(c4ccccc4Cl)CC3)cc12 [Example E35, (s-cis) 5-[4-[4-(2-Chlorophenyl)piperazin-1-yl]butoxy]pyrazolo[1,5-a]pyridine-3-carbaldehyde oxime]",< 30 nM,< 30 nM,< 30 nM,< 30 nM,< 30 nM,30 to 300 nM,160 °C,–,–,A (A=Full antagonist (<15%))
"N#Cc1cnn2ccc(OCCCCN3CCN(c4ccccc4Cl)CC3)cc12 [Example E38, 5-[4-[4-(2-Chlorophenyl)piperazin-1-yl]butoxy]pyrazolo[1,5-a]pyridine-3-carbonitrile]",< 30 nM,< 30 nM,< 30 nM,< 30 nM,< 30 nM,30 to 300 nM,119 °C,–,15 to 40%,–
"COC(=O)c1cnn2ccc(OCCCCN3CCN(c4cccc(Cl)c4Cl)CC3)cc12 [Example E39, Methyl 5-[4-[4-(2,3-dichlorophenyl)piperazin-1-yl]butoxy]pyrazolo[1,5-a]pyridine-3-carboxylate]",< 30 nM,< 30 nM,< 30 nM,< 30 nM,< 30 nM,30 to 300 nM,73 °C,–,< 15%,–
"COC(=O)c1cnn2ccc(OCCCCN3CCN(c4ccccc4OC)CC3)cc12 [Example E40, Methyl 5-[4-[4-(2-methoxyphenyl)piperazin-1-yl]butoxy]pyrazolo[1,5-a]pyridine-3-carboxylate]",< 30 nM,< 30 nM,< 30 nM,< 30 nM,< 30 nM,30 to 300 nM,75 °C,–,15 to 40%,–
"Clc1cccc(N2CCN(CCCCOc3ccn4ncc(Br)c4c3)CC2)c1Cl [Example E42, 3-Bromo-5-[4-[4-(2,3-dichlorophenyl)piperazin-1-yl]butoxy]pyrazolo[1,5-a]pyridine]",30 to 300 nM,30 to 300 nM,< 30 nM,301 to 3000 nM,301 to 3000 nM,> 3000 nM,132 °C,–,15 to 40%,–
"Clc1cccc(N2CCN(CCCCOc3ccn4ncc(Cl)c4c3)CC2)c1Cl [Example E45, 3-Chloro-5-[4-[4-(2,3-dichlorophenyl)piperazin-1-yl]butoxy]pyrazolo[1,5-a]pyridine]",30 to 300 nM,30 to 300 nM,< 30 nM,30 to 300 nM,30 to 300 nM,301 to 3000 nM,133 °C,–,15 to 40%,–
